Test results reported in patent US6291532A, “Use of N-aryl-2-hydroxyalkylamides for stimulating or inducing hair growth and/or arresting hair loss” (L'Oreal, priority 1996, dated 2001).
Where two headings read alike, the source gives them in different places.

Key:
potassium channels = experiment: IC50 of the compounds for their effect on the potassium channels; format: biochemical; settings: for IC50: methods of Newgreen et al., Bray et al. and wickerden et al., concentration which decreases by 50% an induced pharmacological mechanism such as muscular contraction, read-out: IC50 K+ Channels; for opening effect for potassium channels (in words): summary in words of the table of Example 1
Protocol: (§1) The IC50 corresponds to the concentration which decreases by 50% either an induced pharmacological mechanism, such as muscular contraction,or the attachment of a molecule to its membrane receptor.
In order to determine the IC50 of the compounds for their effect on the potassium channels, they were tested according to the methods of Newgreen et al. (Br. J. Pharmacol., 1990, 100, 605-613), Bray et al. (Arch. Pharmacol., 1991, 344, 351-359) and wickerden et al. (Br. J. Pharmacol., 1991, 103, 1148-1152).
(§2) The values are given in μM

androgen receptors = target: T1, androgen receptors (Rattus norvegicus, UniProt P15207); experiment: IC50 of the compounds for their effect on the androgen receptors; format: binding; settings: for affinity for the androgen receptor (in words): summary in words of the table of Example 1
T1 construct: from tissue; host or cells: rat ventral prostate cytosol, inferred from the cited method
T1 sequence (P15207 1-902): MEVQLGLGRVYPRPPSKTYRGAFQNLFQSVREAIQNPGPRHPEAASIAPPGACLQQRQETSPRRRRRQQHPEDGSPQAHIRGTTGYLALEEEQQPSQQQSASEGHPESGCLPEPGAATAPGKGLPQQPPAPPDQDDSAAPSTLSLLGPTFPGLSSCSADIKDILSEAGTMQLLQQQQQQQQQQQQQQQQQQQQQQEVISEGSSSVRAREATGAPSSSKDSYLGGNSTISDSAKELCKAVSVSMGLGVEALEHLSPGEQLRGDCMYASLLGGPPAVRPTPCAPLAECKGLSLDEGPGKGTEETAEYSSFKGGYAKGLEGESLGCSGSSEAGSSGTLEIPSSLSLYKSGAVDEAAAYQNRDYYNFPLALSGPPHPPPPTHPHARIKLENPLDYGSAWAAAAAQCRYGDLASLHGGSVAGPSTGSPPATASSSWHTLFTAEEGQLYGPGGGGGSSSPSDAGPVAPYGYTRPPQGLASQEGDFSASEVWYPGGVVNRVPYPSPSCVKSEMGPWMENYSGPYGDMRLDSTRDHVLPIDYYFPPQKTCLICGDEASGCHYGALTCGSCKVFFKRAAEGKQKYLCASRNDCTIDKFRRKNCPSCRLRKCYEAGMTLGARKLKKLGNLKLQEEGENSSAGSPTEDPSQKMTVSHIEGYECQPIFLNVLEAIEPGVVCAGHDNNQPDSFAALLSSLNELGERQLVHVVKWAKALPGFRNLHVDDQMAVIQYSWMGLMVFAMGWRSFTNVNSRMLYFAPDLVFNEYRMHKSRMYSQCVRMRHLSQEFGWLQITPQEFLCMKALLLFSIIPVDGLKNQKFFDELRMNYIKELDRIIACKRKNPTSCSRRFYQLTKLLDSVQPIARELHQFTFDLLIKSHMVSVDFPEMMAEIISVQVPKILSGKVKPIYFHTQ
Protocol: as §1
In order to determine the IC50 of the compounds for their effect on the androgen receptors, they were tested according to the method of Schilling and Liao ("The Prostate", 1984, 5, 581-588).
as §2

[1] = method of Schilling and Liao, concentration which decreases by 50% the attachment of a molecule to its receptor, read-out: IC50 Androgen receptors

SMILES	IC50 (potassium channels)	opening effect for potassium channels (in words) (potassium channels)	IC50 (androgen receptors)	affinity for the androgen receptor (in words) (androgen receptors)	IC50 (androgen receptors; [1])
CC(O)(C(=O)Nc1ccc(C#N)c(C#N)c1)C(F)(F)F (stereo not shown) [E, N-(3,4-dicyanophenyl)-3,3,3-trifluoro-2-hydroxy-2-methylpropionamide]	1000 nM	excellent opening effect	10000 nM	good affinity	–
CC(O)(C(=O)Nc1ccc(Cl)c(Cl)c1)C(F)(F)F (stereo not shown) [C, N-(3,4-dichlorophenyl)-3,3,3-trifluoro-2-hydroxy-2-methylpropionamide]	2000 nM	excellent opening effect	–	good affinity	1000 nM
CC(O)(C(=O)Nc1ccc(C#N)c(C(F)(F)F)c1)C(F)(F)F (stereo not shown) [A, N-(4-cyano-3-(trifluoromethyl)phenyl)-3,3,3-trifluoro-2-hydroxy-2-methylpropionamide]	500 nM	excellent opening effect	1000 nM	good affinity	–
CC(O)(C(=O)Nc1ccc(C#N)c(C(F)(F)F)c1)c1ccccc1 (stereo not shown) [D, N-(4-cyano-3-(trifluoromethyl)phenyl)-2-hydroxy-2-phenylpropionamide]	3000 nM	excellent opening effect	3000 nM	good affinity	–
CC(O)(C(=O)Nc1ccc([N+](=O)[O-])c(C(F)(F)F)c1)C(F)(F)F (stereo not shown) [F, N-(4-nitro-3-(trifluoromethyl)phenyl)-3,3,3-trifluoro-2-hydroxy-2-methylpropionamide, reference compound]	> 10000 nM	poor opening effect	–	poor affinity	> 10000 nM
CC(O)(C(=O)Nc1ccc(C#N)cc1)C(F)(F)F (stereo not shown) [G, N-(4-cyanophenyl)-3,3,3-trifluoro-2-hydroxy-2-methylpropionamide, reference compound]	10000 nM	poor opening effect	–	poor affinity	> 10000 nM
CC(O)(C(=O)Nc1ccc(C#N)c(Cl)c1)C(F)(F)F (stereo not shown) [B, N-(3-chloro-4-cyanophenyl)-3,3,3-trifluoro-2-hydroxy-2-methylpropionamide]	100 nM	excellent opening effect	500 nM	good affinity	–
